Measurements published in patent publication US7872018B2, “Compounds and methods for kinase modulation, and indications therefor” (Plexxikon, Inc., priority 2006, dated 2011).

Key:
Jnk1 = Jnk1 (Homo sapiens, UniProt P45983); experiment: Jnk1 kinase activity assay; format: biochemical; details: under the test conditions employed; read-out: IC50 toward kinase Jnk1
Kdr = Kdr (Homo sapiens, UniProt P35968); experiment: Kdr kinase activity assay; format: biochemical; details: under the test conditions employed; read-out: IC50 toward kinase Kdr
Chain of Kdr (P35968 20-1356): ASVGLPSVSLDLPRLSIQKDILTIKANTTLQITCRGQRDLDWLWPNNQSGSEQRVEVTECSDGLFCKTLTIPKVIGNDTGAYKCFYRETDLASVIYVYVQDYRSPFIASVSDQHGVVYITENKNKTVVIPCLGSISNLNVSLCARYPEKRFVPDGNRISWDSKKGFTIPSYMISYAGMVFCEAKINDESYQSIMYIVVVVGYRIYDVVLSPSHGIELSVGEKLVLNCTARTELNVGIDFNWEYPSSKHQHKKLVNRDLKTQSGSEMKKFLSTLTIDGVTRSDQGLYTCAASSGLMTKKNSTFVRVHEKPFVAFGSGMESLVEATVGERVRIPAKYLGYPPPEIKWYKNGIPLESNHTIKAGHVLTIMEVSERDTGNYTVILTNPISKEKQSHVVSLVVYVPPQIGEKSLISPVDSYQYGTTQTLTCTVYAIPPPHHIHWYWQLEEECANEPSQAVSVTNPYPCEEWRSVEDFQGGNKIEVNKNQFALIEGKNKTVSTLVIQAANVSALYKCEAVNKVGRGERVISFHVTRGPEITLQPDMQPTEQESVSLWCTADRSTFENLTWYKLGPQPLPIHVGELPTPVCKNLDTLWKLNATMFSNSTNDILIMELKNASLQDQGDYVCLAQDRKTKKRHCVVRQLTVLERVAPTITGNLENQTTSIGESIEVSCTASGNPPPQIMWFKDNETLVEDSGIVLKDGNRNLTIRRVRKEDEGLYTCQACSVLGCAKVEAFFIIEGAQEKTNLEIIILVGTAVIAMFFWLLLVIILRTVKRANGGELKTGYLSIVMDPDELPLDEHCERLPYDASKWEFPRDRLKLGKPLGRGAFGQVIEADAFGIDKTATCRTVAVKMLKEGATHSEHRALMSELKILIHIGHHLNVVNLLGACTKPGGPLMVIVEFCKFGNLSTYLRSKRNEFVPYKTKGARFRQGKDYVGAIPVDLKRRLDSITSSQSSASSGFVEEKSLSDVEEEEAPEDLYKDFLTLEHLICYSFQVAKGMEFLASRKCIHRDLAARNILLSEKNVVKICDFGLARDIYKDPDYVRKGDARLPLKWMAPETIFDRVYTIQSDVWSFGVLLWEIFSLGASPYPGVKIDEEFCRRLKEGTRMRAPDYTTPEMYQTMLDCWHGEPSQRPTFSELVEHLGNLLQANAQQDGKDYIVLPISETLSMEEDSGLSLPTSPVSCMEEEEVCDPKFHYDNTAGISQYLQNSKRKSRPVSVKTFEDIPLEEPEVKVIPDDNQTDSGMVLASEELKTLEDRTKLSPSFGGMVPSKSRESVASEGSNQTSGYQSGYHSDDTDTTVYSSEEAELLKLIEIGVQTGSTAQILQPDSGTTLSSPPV

Flt1 = Flt1 (Homo sapiens, UniProt P17948); experiment: Flt1 kinase activity assay; format: biochemical; details: under the test conditions employed; read-out: IC50 toward kinase Flt1
B-Raf V600E/T529I = B-Raf V600E/T529I (Homo sapiens, UniProt P15056, T529I/V600E); experiment: B-Raf V600E/T529I kinase activity assay; format: biochemical; details: under the test conditions employed; read-out: IC50 toward kinase B-Raf V600E/T529I
Chain of B-Raf V600E/T529I (P15056 whole entry T529I/V600E): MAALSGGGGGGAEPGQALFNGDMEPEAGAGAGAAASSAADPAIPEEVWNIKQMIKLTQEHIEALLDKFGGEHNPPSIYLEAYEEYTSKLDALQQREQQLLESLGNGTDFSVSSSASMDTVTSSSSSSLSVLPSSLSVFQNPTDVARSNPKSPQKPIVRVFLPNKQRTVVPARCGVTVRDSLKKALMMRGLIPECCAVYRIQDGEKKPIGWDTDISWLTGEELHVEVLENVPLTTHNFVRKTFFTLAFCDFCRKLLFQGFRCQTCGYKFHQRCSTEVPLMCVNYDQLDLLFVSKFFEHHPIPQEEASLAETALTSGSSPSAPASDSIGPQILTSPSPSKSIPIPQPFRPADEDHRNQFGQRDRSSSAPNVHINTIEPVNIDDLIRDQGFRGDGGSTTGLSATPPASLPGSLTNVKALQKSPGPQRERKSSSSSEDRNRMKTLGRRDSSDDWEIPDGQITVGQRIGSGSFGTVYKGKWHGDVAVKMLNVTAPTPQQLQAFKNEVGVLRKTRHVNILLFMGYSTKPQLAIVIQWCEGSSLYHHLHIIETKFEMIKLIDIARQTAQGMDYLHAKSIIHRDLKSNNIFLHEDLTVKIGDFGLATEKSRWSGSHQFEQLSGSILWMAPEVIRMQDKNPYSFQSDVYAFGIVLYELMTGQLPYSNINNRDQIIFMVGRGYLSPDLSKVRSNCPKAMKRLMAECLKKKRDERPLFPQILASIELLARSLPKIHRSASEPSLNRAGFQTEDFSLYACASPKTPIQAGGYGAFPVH

Fms = target: T1, Fms (Homo sapiens, UniProt P07333); experiment: Fms biochemical assay (AlphaScreen or 33P-ATP); details: under the test conditions employed; read-out: IC50 toward kinase Fms
T1 construct: purchased Upstate Biotech 14-551
T1 sequence (P07333 20-972): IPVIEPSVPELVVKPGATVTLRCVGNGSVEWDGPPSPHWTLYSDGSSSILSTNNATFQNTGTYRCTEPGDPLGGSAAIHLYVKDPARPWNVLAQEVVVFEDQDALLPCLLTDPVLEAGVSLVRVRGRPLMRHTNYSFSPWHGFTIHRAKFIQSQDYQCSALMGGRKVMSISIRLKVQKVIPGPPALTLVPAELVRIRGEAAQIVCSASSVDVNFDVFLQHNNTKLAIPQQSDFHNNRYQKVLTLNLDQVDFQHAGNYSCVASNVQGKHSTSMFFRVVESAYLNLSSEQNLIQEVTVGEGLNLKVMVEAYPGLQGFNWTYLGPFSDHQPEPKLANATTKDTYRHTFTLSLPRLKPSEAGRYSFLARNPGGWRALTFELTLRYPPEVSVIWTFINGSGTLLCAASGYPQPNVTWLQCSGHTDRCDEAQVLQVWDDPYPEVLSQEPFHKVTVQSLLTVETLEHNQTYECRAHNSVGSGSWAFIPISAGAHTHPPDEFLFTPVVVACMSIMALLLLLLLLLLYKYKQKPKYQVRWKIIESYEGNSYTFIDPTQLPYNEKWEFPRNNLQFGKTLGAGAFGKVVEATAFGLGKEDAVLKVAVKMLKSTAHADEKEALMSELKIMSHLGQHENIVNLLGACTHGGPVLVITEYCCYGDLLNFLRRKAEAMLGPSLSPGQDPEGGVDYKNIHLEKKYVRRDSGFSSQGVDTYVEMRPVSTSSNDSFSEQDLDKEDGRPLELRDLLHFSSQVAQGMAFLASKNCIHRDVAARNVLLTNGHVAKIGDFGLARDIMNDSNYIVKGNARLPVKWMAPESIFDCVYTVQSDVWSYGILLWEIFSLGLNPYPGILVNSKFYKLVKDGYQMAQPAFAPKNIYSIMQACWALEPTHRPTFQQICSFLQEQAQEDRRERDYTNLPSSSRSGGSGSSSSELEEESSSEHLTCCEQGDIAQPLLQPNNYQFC
Excerpt: Each sample was at 5% DMSO.

Kit = target: T2, Kit (Homo sapiens, UniProt P10721); experiment: c-kit biochemical assay (AlphaScreen or 33P-ATP); details: under the test conditions employed; read-out: IC50 toward kinase Kit
T2 construct: P1332.N6 BI PTP KIT M552-K948-X COD; made in house; host or cells: E. coli BL21(DE3)RIL, co-expressed with PTP1B
T2 sequence (P10721 552-948): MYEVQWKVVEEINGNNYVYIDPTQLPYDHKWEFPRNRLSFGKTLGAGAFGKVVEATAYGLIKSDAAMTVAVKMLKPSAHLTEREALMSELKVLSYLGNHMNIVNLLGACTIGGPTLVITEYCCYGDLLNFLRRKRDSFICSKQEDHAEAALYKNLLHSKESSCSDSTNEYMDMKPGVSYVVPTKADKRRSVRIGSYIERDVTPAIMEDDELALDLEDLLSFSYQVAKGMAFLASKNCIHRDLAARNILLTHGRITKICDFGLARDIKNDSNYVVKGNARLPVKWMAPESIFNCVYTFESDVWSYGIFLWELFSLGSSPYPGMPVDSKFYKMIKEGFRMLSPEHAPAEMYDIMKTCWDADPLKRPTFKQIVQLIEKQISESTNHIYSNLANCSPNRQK
In short: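 Kinase activity read by AlphaScreen or 33P-ATP incorporation, with c-kit enzyme at 1 ng per sample. The enzyme was either commercial or a recombinant human kit construct made from a gene-synthesized coding sequence.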

Src = Src (Homo sapiens, UniProt P12931); experiment: Src kinase activity assay; format: biochemical; details: under the test conditions employed; read-out: IC50 toward kinase Src
B-Raf = B-Raf (Homo sapiens, UniProt P15056); experiment: B-Raf kinase activity assay; format: biochemical; details: under the test conditions employed; read-out: IC50 toward kinase B-Raf
Chain of B-Raf (P15056 whole entry): as the sequence (P15056 whole entry T529I/V600E) above, with I529T, E600V counted along it

FGFR = FGFR (Homo sapiens, UniProt P11362); experiment: FGFR kinase activity assay; format: biochemical; details: under the test conditions employed; read-out: IC50 toward kinase FGFR
Chain of FGFR (P11362 22-822): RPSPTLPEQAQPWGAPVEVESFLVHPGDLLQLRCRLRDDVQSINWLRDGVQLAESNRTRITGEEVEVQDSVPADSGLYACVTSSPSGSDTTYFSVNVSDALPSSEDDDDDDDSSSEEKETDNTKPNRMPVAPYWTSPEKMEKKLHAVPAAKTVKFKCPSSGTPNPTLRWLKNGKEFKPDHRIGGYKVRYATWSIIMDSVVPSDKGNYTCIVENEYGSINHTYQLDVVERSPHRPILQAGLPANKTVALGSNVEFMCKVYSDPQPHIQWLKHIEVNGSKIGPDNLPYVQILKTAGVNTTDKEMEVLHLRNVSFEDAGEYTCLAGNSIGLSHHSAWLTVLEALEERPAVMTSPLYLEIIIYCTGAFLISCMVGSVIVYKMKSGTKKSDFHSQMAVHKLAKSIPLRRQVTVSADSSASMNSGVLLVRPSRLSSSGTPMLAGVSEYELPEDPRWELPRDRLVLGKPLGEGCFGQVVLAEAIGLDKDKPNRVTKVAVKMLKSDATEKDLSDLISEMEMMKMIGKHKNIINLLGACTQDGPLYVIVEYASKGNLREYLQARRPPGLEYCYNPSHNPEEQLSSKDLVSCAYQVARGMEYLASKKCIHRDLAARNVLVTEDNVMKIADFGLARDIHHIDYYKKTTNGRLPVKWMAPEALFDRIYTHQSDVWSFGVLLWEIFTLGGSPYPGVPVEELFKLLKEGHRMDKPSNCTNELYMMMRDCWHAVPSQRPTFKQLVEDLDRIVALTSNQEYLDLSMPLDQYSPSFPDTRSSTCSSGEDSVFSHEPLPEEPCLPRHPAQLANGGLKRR

Met = Met (Homo sapiens, UniProt P08581); experiment: Met kinase activity assay; format: biochemical; details: under the test conditions employed; read-out: IC50 toward kinase Met

Chain of Jnk1 (P45983 whole entry): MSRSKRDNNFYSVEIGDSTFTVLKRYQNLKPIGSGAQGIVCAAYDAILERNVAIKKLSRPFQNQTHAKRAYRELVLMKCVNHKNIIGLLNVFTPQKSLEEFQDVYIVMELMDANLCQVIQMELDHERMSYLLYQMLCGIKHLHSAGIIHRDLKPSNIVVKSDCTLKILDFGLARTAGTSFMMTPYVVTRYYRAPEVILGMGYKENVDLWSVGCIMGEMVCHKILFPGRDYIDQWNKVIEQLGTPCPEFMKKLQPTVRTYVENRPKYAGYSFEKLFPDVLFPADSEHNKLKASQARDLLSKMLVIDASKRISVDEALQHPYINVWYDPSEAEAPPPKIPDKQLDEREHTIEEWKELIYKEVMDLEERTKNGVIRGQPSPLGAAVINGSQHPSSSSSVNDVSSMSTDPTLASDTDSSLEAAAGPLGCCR

IC50 (Jnk1) [µM] | IC50 (Kdr) [µM] | IC50 (Flt1) [µM] | IC50 (B-Raf V600E/T529I) [µM] | IC50 (Fms) [µM] | IC50 (Kit) [µM] | IC50 (Src) [µM] | IC50 (B-Raf) [µM] | IC50 (FGFR) [µM] | IC50 (Met) [µM] | SMILES
≤ 10 |  |  |  |  |  |  |  |  |  | O=C(c1ccc(OCc2ccc(Cl)cc2)c(F)c1)c1c[nH]c2ncccc12 [P-1897, [4-(4-chloro-benzyloxy)-3-fluoro-phenyl]-(1H-pyrrolo[2,3-b]pyridin-3-yl)-methanone]
 | ≤ 10 | ≤ 10 | ≤ 10 | ≤ 10 |  |  |  |  |  | COc1cnc2[nH]cc(C(=O)c3c(Cl)ccc(OCC(F)(F)F)c3Cl)c2c1 [P-2154, [2,6-Dichloro-3-(2,2,2-trifluoro-ethoxy)-phenyl]-(5-methoxy-1H-pyrrolo[2,3-b]pyridin-3-yl)-methanone]
 | ≤ 10 |  | ≤ 10 | ≤ 10 | ≤ 10 |  |  |  |  | Fc1cc(Cc2c[nH]c3ncc(Cl)cc23)c(Cl)cc1OCc1cccnc1 [P-2156, 5-Chloro-3-[2-chloro-5-fluoro-4-(pyridin-3-ylmethoxy)-benzyl]-1H-pyrrolo[2,3-b]pyridine]
≤ 10 |  |  |  |  |  |  |  |  |  | Fc1cc(Cc2c[nH]c3ncccc23)ccc1OCc1ccc(Cl)cc1 [P-1896, 3-[4-(4-Chloro-benzyloxy)-3-fluoro-benzyl]-1H-pyrrolo[2,3-b]pyridine]
 | ≤ 10 | ≤ 10 | ≤ 10 | ≤ 10 | ≤ 10 | ≤ 10 | ≤ 10 |  |  | Cn1cc(-c2cnc3[nH]cc(C(=O)c4c(Cl)ccc(OCC(F)(F)F)c4Cl)c3c2)cn1 [P-2151, [2,6-Dichloro-3-(2,2,2-trifluoro-ethoxy)-phenyl]-[5-(1-methyl-1H-pyrazol-4-yl)-1H-pyrrolo[2,3-b]pyridin-3-yl]-methanone]
 | ≤ 10 |  |  | ≤ 10 | ≤ 10 |  |  | ≤ 10 | ≤ 10 | COCCOc1ccc(F)c(Cc2c[nH]c3ncc(Cl)cc23)c1Cl [P-2157, 5-Chloro-3-[2-chloro-6-fluoro-3-(2-methoxy-ethoxy)-benzyl]-1H-pyrrolo[2,3-b]pyridine]
